Counter-ions that a name gives are not always drawn. Like-named read-outs stand apart in the source and are kept apart here.
Tested on: liver
Assay: CCl4 induced hepatotoxicity in rats (serum AST/ALT)
Type: in vivo, rat
Conditions: for inhibition in vivo at 100 mg/kg: Rattus norvegicus, read-out: % Hepatoprotection; for protection against CCl4 hepatotoxicity (in words): rats, serum enzyme levels
Protocol: In vivo experiments were performed to determine if alpha-TS administration protects the liver from chemical toxicity. The liver is the target organ for CCl4. CCl4 is a hepatotoxic agent that induces centrilobular liver necrosis through its metabolism to free radicals. Male Sprague-Dawley rats were given an intraperitoneal dose (100 mg/kg) of a tocopherol analog 24 hours prior to a CCl4 challenge (2.9g/kg given by oral garage). Forty eight hours after the challenge, the rats were sacrificed and the levels of aspartate aminotransferase (AST) and alanine aminotransferase (ALT) were measured.
As discussed above, SGOT levels provide a clinical assessment of hepatotoxicity (liver damage).
Succinate analogs were administered to male Sprague-Dawley rats 20 hours prior to a 1 g CCl4 /kg body weight oral challenge and the AST and ALT serum enzyme levels were measured 48 hours after the challenge.
Similar to the experiments were described above, the ionizable congeners were administered to Sprague-Dawley rats by i.p. injection of a 100 mg ionizable congener/kg body weight dose 20 hours prior to oral administration of a 1 g/kg dose of CCl4, and the AST and ALT levels were measured 48 hours after the CCl4 challenge.

[1] = 100 mg/kg ip, peanut oil vehicle, 48 h after 1 g/kg CCl4 (Table 39)
[2] = 100 mg/kg ip, PEG 400 vehicle, 48 h after 1 g/kg CCl4 (Table 34)
[3] = 100 mg/kg ip, 48 h after 1 g/kg CCl4 (Table 42)
[4] = 100 mg/kg ip (dihydrocholesterol 80 + sodium sulfate 30 mg/kg), 48 h after 1 g/kg CCl4 (Table 35)
[5] = 100 mg/kg ip 20 h prior, 48 h after 1 g/kg CCl4
[6] = 20 h prior, 48 h after 1 g/kg CCl4 (Table 36)
[7] = 100 mg/kg ip, 48 h after 1 g/kg CCl4 (Table 37)
[8] = 100 mg/kg ip, 48 h after 1 g/kg CCl4 (Table 33)
[9] = 100 mg/kg ip, 48 h after 1 g/kg CCl4 (Table 40)

Structure (SMILES): C[C@]12CC[C@H](OC(=O)CCC(=O)O)CC1=CC[C@@H]1[C@@H]2CC[C@]2(C)C(=O)CC[C@@H]12 [Dehydroepiandosterone 3-succinate]
- ALT [1]: 3.89 ± 1.77 10^3 units/L
- AST [1]: 10.42 ± 3.36 10^3 units/L
- inhibition in vivo at 100 mg/kg (ip, 48 h): 0%

Structure (SMILES): C[C@]12CC[C@H](OS(=O)(=O)O)CC1=CC[C@@H]1[C@@H]2CC[C@]2(C)C(=O)CC[C@@H]12 [Dehydroepiandosterone 3-sulfate]
- ALT [2]: 3.89 ± 0.81 10^3 units/L
- AST [2]: 13.85 ± 0.37 10^3 units/L
- inhibition in vivo at 100 mg/kg (ip, 48 h): 4%

Structure (SMILES): CC(=O)Oc1ccc2c(c1)CCC1C2CC[C@]2(C)C(=O)CCC12 (stereo partly drawn) [Estrone Acetate, reference compound]
- ALT [3]: 0.18 ± 0.08 10^3 units/L
- AST [3]: 0.53 ± 0.24 10^3 units/L

Structure (SMILES): CCCCC/C=C\C/C=C\CCCCCCCCOC(=O)CCC(=O)O [Linoleyl succinate]
- ALT [4]: 1.44 ± 0.59 10^3 units/L
- AST [4]: 4.47 ± 2.21 10^3 units/L
- ALT [1]: 1.95 ± 0.84 10^3 units/L
- AST [1]: 5.60 ± 1.30 10^3 units/L
- inhibition in vivo at 100 mg/kg [5]: 46%

Structure (SMILES): CC(C)CCC[C@@H](C)[C@H]1CC[C@H]2[C@@H]3CC[C@H]4C[C@@H](OC(=O)CCC(=O)O)CC[C@]4(C)[C@H]3CC[C@]12C [Dihydrocholesterol succinate]
- ALT [6]: 0.39 ± 0.40 10^3 units/L
- AST [6]: 0.44 ± 0.29 10^3 units/L
- protection against CCl4 hepatotoxicity (in words): complete protection against hepatotoxicity

Structure (SMILES): CC(C)CCC[C@@H](C)[C@H]1CC[C@H]2[C@@H]3CC[C@H]4C[C@@H](OC(=O)CCC(=O)O)CC[C@]4(C)[C@H]3CC[C@]12C [Dihydrocholesterol succinate, tris salt]
- ALT [7]: 0.09 ± 0.03 10^3 units/L
- AST [7]: 0.19 ± 0.05 10^3 units/L
- inhibition in vivo at 100 mg/kg (ip, 48 h): 100%

Structure (SMILES): CCCCCCCCCCCCCCCCO [Palmityl Alcohol, reference compound]
- ALT [8]: 1.840 ± 1.106 10^3 units/L
- AST [8]: 8.70 ± 3.00 10^3 units/L
- protection against CCl4 hepatotoxicity (in words): generally not protective

Structure (SMILES): CC(C)CCC[C@@H](C)[C@H]1CC[C@H]2[C@@H]3CC=C4C[C@@H](OC(=O)c5ccccc5C(=O)O)CC[C@]4(C)[C@H]3CC[C@]12C [Cholesteryl hydrogen phthalate]
- ALT [2]: 0.06 ± 0.03 10^3 units/L
- AST [2]: 0.30 ± 0.12 10^3 units/L
- inhibition in vivo at 100 mg/kg (ip, 48 h): 100%
- protection against CCl4 hepatotoxicity (in words): potent cytoprotective agents in vivo

Structure (SMILES): CCCCCCCCCCCCCCCCOC(=O)CCC(=O)O [Palmityl succinate]
- ALT [8]: 1.679 ± 0.881 10^3 units/L
- AST [8]: 6.54 ± 3.61 10^3 units/L
- inhibition in vivo at 100 mg/kg [5]: 22%

Structure (SMILES): CCCCCCCCCCCCOS(=O)(=O)[O-].[Na+] [Lauryl sulfate, sodium salt]
- ALT [9]: 1.40 ± 0.59 10^3 units/L
- AST [9]: 5.00 ± 1.54 10^3 units/L
- inhibition in vivo at 100 mg/kg (ip, 48 h): 26%
- protection against CCl4 hepatotoxicity (in words): generally not protective

Structure (SMILES): C[C@]12CCC(=O)C=C1CC[C@@H]1[C@@H]2[C@@H](O)C[C@@]2(C)[C@H]1CC[C@]2(O)C(=O)COC(=O)CCC(=O)O [Hydrocortisone 21-succinate, reference compound]
- ALT [8]: 1.596 ± 0.887 10^3 units/L
- AST [8]: 6.18 ± 3.15 10^3 units/L
- inhibition in vivo at 100 mg/kg [5]: 25%
- protection against CCl4 hepatotoxicity (in words): no cytoprotection was observed

Structure (SMILES): C[C@]12CC[C@@H]3c4ccc(O)cc4CC[C@H]3[C@@H]1CCC2=O [Estrone, reference compound]
- ALT [3]: 0.33 ± 0.30 10^3 units/L
- AST [3]: 0.56 ± 0.45 10^3 units/L

— patent US5336485A, “Method for protecting animals against tacrine induced cytotoxic injury using sterol compounds” (priority 1993, dated 1994)
